According to patent US20160115540A1, “PRODRUGS AND DRUGS” (Biogen MA Inc., priority 2013, published 2016):
Where a name gives a salt, the structure may show the parent alone.

What was measured:
spleen = test: Transcriptional profiling, multi-dosing regimen, naïve mice: spleen; assay type: in vivo; conditions: for Number of differentially expressed genes identified: Spleen: Table 13: Naïve, Single Dose (so in the source), 12 h after last dosing
Experimental: (§1) In vivo, DMF is rapidly metabolized to monomethyl fumarate (MMF). […] Animals were exposed to CO2 and whole blood collected via cardiac puncture. Two 100 μl aliquots of whole blood were collected in 1.5 mL microcentrifuge tubes and snap frozen in liquid nitrogen. Peripheral (liver, spleen, kidney and jejunum) and CNS brain (cerebellum, hippocampus, striatum and cortex) tissues were harvested and snap frozen in liquid nitrogen, with special care taken to collect tissues of similar size and from the same location. All samples were stored at -80° C. until RNA extraction was conducted. For RNA preparation, frozen tissues were placed in 2 mL RNAse-free 96-well blocks with 1.5 mL QIAzol Lysis Reagent (QIAgen) and a 3.2 mm stainless steel bead (BioSpec Products, Bartlesville, Okla.). Tissues were disrupted for four cycles of 45 seconds in a Mini-Beadbeater (Biospec Products). RNA was extracted in chloroform and the aqueous phase was mixed with an equal volume of 70% ethanol. Extracted RNA was applied to RNeasy 96 plates and purified by the spin method according to the manufacturer's protocol (RNeasy 96 Universal Tissue Protocol, QIAgen, Hilden Germany). […] Two micrograms of biotin labeled […] probe were hybridized to Affymetrix GeneChip Affymetrix HT_MG-430_PM plate arrays with modified conditions as described in […] et al. Washing and staining of the hybridized arrays were completed as described in the GeneChip Expression analysis technical manual for HT plate arrays using the Genechip® Array Station (Affymetrix, Santa Clara, Calif.) with modifications as described in […] et al. The processed GeneChip® plate arrays were scanned using GeneTitan scanner (Affymetrix, Santa Clara, Calif.). Affymetrix scans were subject to quality control (QC) measures. These tests included a visual inspection of the distribution of raw signal intensities and an assessment of RNA degradation, relative log expression (RLE), and normalized unsealed standard error (NUSE). All sample scans that passed these QC metrics were included in the analysis. All CEL files were subjected to GC-content-based Robust Multi-array Average (GCRMA) normalization (version 2.20.0) (Irizarry R A, et al. Nucleic Acids Res 2003; 31:e15; Li C, et al. […] Stat Appl Genet Mol Biol 2004; 3:Article3). […] Springer Science+Business Media 2005). Changes in gene expression were studied by applying a linear modeling approach to fit gene expression levels according to the defined groups of samples (e.g. DMF-, MMF-, and Vehicle-treated animals) and Bayesian posterior error analysis as implemented by Smyth (Smyth G K. Stat Appl Genet Mol Biol 2004; 3:Article3). The comparisons considered included: DMF-vs-MMF, DMF-vs-Vehicle, and MMF-vs-Vehicle. […] Very few DEGs are observed in blood and tissues derived from the central nervous system (brain, cerebellum, cortex, striatum, and spinal cord).

brain = test: Transcriptional profiling, multi-dosing regimen, naïve mice: brain; assay type: in vivo; conditions: for FC: BRAIN_HEMI, 100DMF-vs-Veh; for FC, Depp (1433836_PM_a_at): BrainHemi, multi-dosing; for Number of differentially expressed genes identified: Brain Hemi: Table 13: Naïve, Single Dose (so in the source), 12 h after last dosing
Experimental: as §1

[1] = SPLEEN, 100DMF-vs-100MMF, naïve multidose
[2] = SPLEEN, 100DMF-vs-Veh, naïve multidose

Compound: COC(=O)/C=C/C(=O)OC [DMF, dimethyl fumarate]
- FC 4931431B13Rik (1430416_PM_at) (spleen; [1]): 2.18
- FC AU015536 (1445025_PM_at) (spleen; [1]): 1.55
- FC Adap2 (1425639_PM_at) (spleen; [1]): 1.60
- FC Agtr1a (1436739_PM_at) (spleen; [1]): 1.61
- FC Ano1 (1426571_PM_at) (spleen; [1]): 1.70
- FC Ano1 (1459713_PM_s_at) (spleen; [1]): 1.55
- FC Apoc1 (1417561_PM_at) (spleen; [1]): 1.74
- FC Ccbe1 (1439327_PM_at) (spleen; [1]): 2.07
- FC Ccdc80 (1424187_PM_at) (spleen; [1]): 1.74
- FC Ccl3 (1419561_PM_at) (spleen; [1]): 1.81
- FC Ccl6 (1420249_PM_s_at) (spleen; [1]): 1.88
- FC Ccr3 (1422957_PM_at) (spleen; [1]): 2.25
- FC Cd300ld (1424832_PM_at) (spleen; [1]): 1.82
- FC Cdr2l (1445027_PM_at) (spleen; [1]): 1.57
- FC Clec4n (1419627_PM_s_at) (spleen; [1]): 1.52
- FC Clec4n (1425951_PM_a_at) (spleen; [1]): 1.83
- FC Dmd (1417307_PM_at) (spleen; [1]): 1.59
- FC Ear1 (1421802_PM_at) (spleen; [1]): 3.89
- FC Ear1 /// Ear12 /// Ear2 /// Ear3 (1422411_PM_s_at) (spleen; [1]): 1.79
- FC Ear2 (1449846_PM_at) (spleen; [1]): 1.51
- FC Ear3 (1422412_PM_x_at) (spleen; [1]): 1.80
- FC Emr4 (1424998_PM_at) (spleen; [1]): 1.77
- FC Ercc61 (1424766_PM_at) (spleen; [1]): −1.66
- FC Fam63a (1438321_PM_x_at) (spleen; [1]): −1.52
- FC Fcgr1 (1417876_PM_at) (spleen; [1]): 1.61
- FC Fcna (1418243_PM_at) (spleen; [1]): 1.57
- FC Hs6st2 (1450047_PM_at) (spleen; [1]): 1.64
- FC Kcnj16 (1435094_PM_at) (spleen; [1]): 1.69
- FC Klrb1a (1450296_PM_at) (spleen; [1]): 1.78
- FC Lphn3 (1458742_PM_at) (spleen; [1]): 1.60
- FC Ncr1 (1422089_PM_at) (spleen; [1]): 1.54
- FC Niacr1 (1419721_PM_at) (spleen; [1]): 1.65
- FC P2ry12 (1431724_PM_a_at) (spleen; [1]): 1.66
- FC Pla2g7 (1430700_PM_a_at) (spleen; [1]): 1.51
- FC Ptplad2 (1450967_PM_at) (spleen; [1]): 1.56
- FC Rab31 (1431691_PM_a_at) (spleen; [1]): 1.73
- FC Rnf144b (1425282_PM_at) (spleen; [1]): 1.86
- FC Skiv2l (1422584_PM_at) (spleen; [1]): −1.52
- FC St18 (1455123_PM_at) (spleen; [1]): 1.75
- FC Sult1a1 (1427345_PM_a_at) (spleen; [1]): 1.51
- FC Tmem26 (1434583_PM_at) (spleen; [1]): 1.57
- FC Ubn2 (1430056_PM_at) (spleen; [1]): −1.62
- FC Vcam1 (1415989_PM_at) (spleen; [1]): 1.50
- FC Vcam1 (1436003_PM_at) (spleen; [1]): 1.62
- FC Vcam1 (1451314_PM_a_at) (spleen; [1]): 1.61
- FC Vnn3 (1420723_PM_at) (spleen; [1]): 1.54
- FC probe 1420250_PM_at (no gene symbol) (spleen; [1]): 1.50
- FC probe 1421534_PM_at (no gene symbol) (spleen; [1]): 1.57
- FC probe 1429277_PM_at (no gene symbol) (spleen; [1]): 1.59
- FC probe 1442323_PM_at (no gene symbol) (spleen; [1]): −1.55
- FC probe 1444189_PM_at (no gene symbol) (spleen; [1]): 1.71
- FC probe 1445379_PM_at (no gene symbol) (spleen; [1]): −1.51
- FC Aox1 (1419435_PM_at) (spleen; [2]): 1.66
- FC Gsta3 (1423436_PM_at) (spleen; [2]): 1.86
- FC Gstm1 (1416416_PM_x_at) (spleen; [2]): 1.57
- FC Gstm1 (1448330_PM_at) (spleen; [2]): 1.61
- Number of differentially expressed genes identified: Spleen (spleen; 100 mpk DMF-vs-90 mpk MMF): 52
- Number of differentially expressed genes identified: Spleen (spleen; 100 mpk DMF-vs-Vehicle): 4
- CCR3, Klrb1c, NCR1 and CCL3L1 expression (downstream of IL2), DMF vs MMF (spleen; spleen, multi-dosed naïve mice): up-regulated
- FCGR1A, ST18, CCL3L1 and VCAM1 expression (downstream of NFkB), DMF vs MMF (spleen; spleen, multi-dosed naïve mice): up-regulated
- FC (brain; 2310079F09Rik 1433201_PM_at): 2.00
- FC (brain; 8430408G22Rik 1433836_PM_a_at): 1.77
- FC, Depp (1433836_PM_a_at) (brain; DMF-vs-MMF): 1.78
- FC, Depp (1433836_PM_a_at) (brain; DMF-vs-Vehicle): 1.77
- FC (brain; Pvrl3 1457257_PM_x_at): −1.69
- Number of differentially expressed genes identified: Brain Hemi (brain; 100 mpk DMF-vs-90 mpk MMF): 8
- Number of differentially expressed genes identified: Brain Hemi (brain; 100 mpk DMF-vs-Vehicle): 3
- DEPP gene induction (mRNA) (brain; brain, multi-dosing regimen, naïve mice): robustly induced
